Holding throughout (experiment): growth of human tumour cells (NCI), 48 h
Assay [1] has as its system RPMI-8226.
In assay [2] the test system is MOLT-4.
Assay [3] has as its system OVCAR-8.
The test system of assay [4] is UACC-257.
Assay [5] deals with UACC-62.
Assay [6] concerns SN12C.
Assay [7] relates to COLO 205.
For assay [8], the system named is 786-0.
Assay [9] relates to K562.
Assay [10] concerns HCT-116.
Assay [11] relates to HCC 2998.
Assay [12] relates to OVCAR-5.
Assay [13] has as its system MDA-N.
Assay [14] deals with NCI-H460.
Assay [15] has as its system IGROV-1.
In assay [16] the test system is KM12.
The test system of assay [17] is OVCAR-4.
Assay [18] has as its system SF-268.
Assay [19] has as its system T47D.

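Exposure lasted 48 hours, with cells grown in 96-well plates and compounds tested at five concentrations. At the GI50, growth is halved.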 Calls of active or inactive are those of the source. No stated cut-off is given here; in the data, active = GI50 up to about 1.1 µM and inactive = higher.

Regarding `O=CC1=C(C(=O)OC(c2ccccc2)c2ccccc2)N2C(=O)[C@@H](NC(=O)Cc3cccs3)[C@H]2SC1`, the GI50 in [1] is 79.4 µM (inactive); in assay [2] it was 53.6 µM (inactive); in [3], > 100 µM (inactive); in assay [4], > 100 µM (inactive); in assay [5], > 100 µM (inactive); in assay [6] it was > 100 µM (inactive). Moreover, the GI50 is > 100 µM (inactive) in [7]; > 100 µM (inactive) in assay [8]; > 100 µM (inactive) in assay [9]; 83 µM (inactive) in assay [10]; > 100 µM (inactive) in assay [11]; > 100 µM (inactive) in assay [12]. In addition, the GI50 was > 100 µM (inactive) in assay [13]; > 100 µM (inactive) in [14]; > 100 µM (inactive) in [15]; 91.2 µM (inactive) in assay [16]; > 100 µM (inactive) in assay [17].

For `CC(=O)c1ccc(NC(=O)/C(CC(=O)c2sc(-c3cccnc3)nc2C)=N/NC(N)=O)cc1`, the GI50 in [1] was 23.5 µM (inactive); in assay [2] it was 19.3 µM (inactive); in assay [3], 56.5 µM (inactive); in assay [4], > 10 µM (inactive); in [18] it was 38.7 µM (inactive); in assay [5] it was 52.2 µM (inactive). The GI50 is 51.6 µM (inactive) in assay [6]; 18.2 µM (inactive) in [7]; 27.9 µM (inactive) in assay [8]; > 100 µM (inactive) in assay [9]; 22.6 µM (inactive) in assay [10]; > 10 µM (inactive) in assay [11]. For the same compound, the GI50 in [12] is 45.1 µM (inactive); in assay [14], 27.1 µM (inactive); in [15], > 100 µM (inactive); in assay [16], > 100 µM (inactive); in assay [17], > 100 µM (inactive).

With `CC1(C)C(=O)N(CCCCCCN2C(=O)C(C)(C)c3ccccc32)c2ccccc21`, the GI50 was 23 µM (inactive) in [1]; 33.8 µM (inactive) in assay [2]; 51.3 µM (inactive) in assay [3]; 21.8 µM (inactive) in [4]; 60.8 µM (inactive) in assay [18]; 22.9 µM (inactive) in assay [5]. Further, the GI50 in [6] is 59.7 µM (inactive); in assay [7], 22.1 µM (inactive); in [8], 18.2 µM (inactive); in assay [9], 22.6 µM (inactive); in [10], 21 µM (inactive); in [11], 71.6 µM (inactive). For the same compound, the GI50 is 80.5 µM (inactive) in assay [12]; 54.3 µM (inactive) in [14]; 88.3 µM (inactive) in [15]; 37.9 µM (inactive) in assay [16]; 23.4 µM (inactive) in assay [17].

In the case of `N#CI1OC(C(F)(F)F)(C(F)(F)F)c2ccccc21`, the GI50 in assay [1] was 29.3 µM (inactive); in [3], 16.3 µM (inactive); in assay [4], 22.2 µM (inactive); in assay [18] it was 17.8 µM (inactive); in assay [5], 18.4 µM (inactive); in assay [6], 23.1 µM (inactive). In addition, the GI50 in [7] is 12.9 µM (inactive); in assay [8], 14.2 µM (inactive); in [9], 12.1 µM (inactive); in assay [10], 16.4 µM (inactive); in assay [11], 20 µM (inactive); in assay [12] it was 19.2 µM (inactive). Further, the GI50 was 24.8 µM (inactive) in assay [14]; 18.1 µM (inactive) in [19]; 16.4 µM (inactive) in assay [15]; 17 µM (inactive) in [16]; 15.1 µM (inactive) in [17].

With `CCN(CC)CCCNc1nccc2c(C)c3[nH]c4ccncc4c(=O)c3cc12`, the GI50 in assay [1] was 2.64 µM (inactive); in assay [2] it was 0.33 µM (active); in [3] it was 0.557 µM (active); in [4], 6.84 µM (inactive); in assay [18] it was 0.643 µM (active); in assay [5] it was 1.53 µM (inactive). The GI50 in [6] is 1.5 µM (inactive); in [7] it was 2.55 µM (inactive); in [8], 0.977 µM (active); in assay [9], 2.61 µM (inactive); in [10] it was 0.514 µM (active); in [11], 2.37 µM (inactive). In addition, the GI50 in [12] is 3.72 µM (inactive); in [14], 1.71 µM (inactive); in assay [15], 2.93 µM (inactive); in [16], 3.52 µM (inactive); in [17], 0.604 µM (active).

On to `CSc1nc(-c2cc3c(c(SC)n2)CCCCC3)cc2c1CCCCC2`, for which the GI50 is > 100 µM (inactive) in assay [1]; > 100 µM (inactive) in assay [2]; > 100 µM (inactive) in assay [3]; > 100 µM (inactive) in assay [4]; 50.7 µM (inactive) in assay [18]; > 100 µM (inactive) in assay [5]. For the same compound, the GI50 in assay [6], in [7], in assay [8], in assay [9], in assay [10] and in assay [11] was > 100 µM (inactive) each time. In addition, the GI50 is > 100 µM (inactive) in [12]; > 100 µM (inactive) in assay [13]; > 100 µM (inactive) in [14]; 22.8 µM (inactive) in [15]; > 100 µM (inactive) in assay [16]; > 100 µM (inactive) in assay [17].

With `O=C1c2cccc3cccc(c23)C(=O)N1CCN(CCO)CCO`, the GI50 in assay [1] was 12.9 µM (inactive); in assay [2], 24.2 µM (inactive); in [3], 16.3 µM (inactive); in [4] it was 22.5 µM (inactive); in assay [18], 35.6 µM (inactive); in [5] it was 20.6 µM (inactive). Moreover, the GI50 in assay [6] was 25.4 µM (inactive); in assay [7], 15.6 µM (inactive); in assay [8], 40.6 µM (inactive); in assay [9], 25.5 µM (inactive); in assay [10], 16.9 µM (inactive); in assay [11], 26.2 µM (inactive). Moreover, the GI50 in assay [12] was 20.9 µM (inactive); in [14], 23.4 µM (inactive); in assay [15] it was 32.7 µM (inactive); in assay [16] it was 29.5 µM (inactive); in [17] it was 25.5 µM (inactive).

Consider `CCOC(=O)C1=C(C)NC(=S)NC1c1ccccc1` (configuration not stated), for which the GI50 in assay [1] is 33.9 µM (inactive); in assay [2], 59.6 µM (inactive); in [3] it was > 100 µM (inactive); in [4] it was > 100 µM (inactive); in [18], > 100 µM (inactive); in assay [5], > 71.3 µM (inactive). Also, the GI50 was > 100 µM (inactive) in assay [6]; > 45 µM (inactive) in assay [7]; > 100 µM (inactive) in assay [8]; 50 µM (inactive) in assay [9]; > 59 µM (inactive) in assay [10]; > 100 µM (inactive) in [11]. Also, the GI50 was > 100 µM (inactive) in assay [12]; > 59.3 µM (inactive) in assay [14]; > 100 µM (inactive) in [15]; > 100 µM (inactive) in [16]; 32.3 µM (inactive) in assay [17].

Source of the values: ChEMBL document CHEMBL1201862, “PubChem BioAssay data set” (2004).
